Experimental data published in article PMC6010111, “Synthesis, biological evaluation and molecular modeling studies on novel quinonoid inhibitors of CDC25 phosphatases” (Journal of Enzyme Inhibition and Medicinal Chemistry, 2016).

Experiments:
Format in all cases: biochemical
[1] = target: T1, human CDC25A (recombinant GST-CDC25) (Homo sapiens, UniProt P30304); assay: CDC25A dephosphorylation assay with 3-O-methylfluorescein phosphate (fluorimetric); settings: for remaining activity at 100 µM: 100 µM compound, DMSO control = 100%, read-out: residual activity of CDC25A; for IC50: mean of triplicates ± SD
T1 construct: made in house; host or cells: Escherichia coli BL21-DE3 pLys S
T1 sequence (P30304 1-524): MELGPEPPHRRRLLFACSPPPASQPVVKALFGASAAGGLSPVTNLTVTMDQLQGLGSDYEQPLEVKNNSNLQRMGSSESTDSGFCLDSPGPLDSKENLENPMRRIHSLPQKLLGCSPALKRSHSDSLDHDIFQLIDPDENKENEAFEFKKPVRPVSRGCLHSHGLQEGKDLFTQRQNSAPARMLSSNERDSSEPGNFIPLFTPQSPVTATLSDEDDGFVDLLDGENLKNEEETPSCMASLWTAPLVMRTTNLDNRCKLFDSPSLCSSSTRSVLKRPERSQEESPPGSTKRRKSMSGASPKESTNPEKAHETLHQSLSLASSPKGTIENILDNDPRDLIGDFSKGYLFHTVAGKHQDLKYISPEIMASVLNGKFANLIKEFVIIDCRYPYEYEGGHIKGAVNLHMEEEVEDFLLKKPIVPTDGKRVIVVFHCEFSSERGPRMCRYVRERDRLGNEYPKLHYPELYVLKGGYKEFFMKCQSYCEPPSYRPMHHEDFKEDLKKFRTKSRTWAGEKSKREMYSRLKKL
Description: (§1) Human glutathione-S-transferase (GST)-Cdc25 recombinant enzymes were used to evaluate the inhibitory potential of compounds.
(§2) Recombinant human GST-CDC25 proteins were produced as previously described by Brault et al.[25] Briefly, the GST-tagged Cdc25s were expressed in the bacterial expression system Escherichia coli BL21-DE3 pLys S, transformed by a plasmidic vector (pGEX 2T) containing the sequences encoding full length CDC25. Production of recombinant proteins was induced via an IPTG induction system. Then, cells were lysed and centrifuged to recover the supernatant which was purified with a GSH-agarose column system, and recombinant GST-CDC25 proteins were eluted and collected in fractions. Activity, purity and protein concentration of the fractions were evaluated.
(§3) CDC25 enzymatic activity was measured by a dephosphorylation assay with 3-O methyl fluorescein phosphate as described. Briefly, the assay was performed in 96-well plates in buffer [50 mM Tris–HCl, 50 mM NaCl, 1 mM EDTA and 0.1% SAB, pH 8.1], 3-O-methylfluorescein phosphate was used as substrate. After 2 h at 30 °C, 3-O-methylfluorescein fluorescent emission was measured with a CytoFluor system (Perspective Applied Biosystems, Villebon-sur-Yvette, France; excitation filter: 475 nm; emission filter: 510 nm).
(§4) Assays were performed in triplicate, and the experiment was independently performed three times. The results are expressed as percentage of inhibition of CDC25 phosphatase activity in presence of the tested compounds (and compared to DMSO control). All compounds were tested at a 100 µM concentration. Naphtoquinone (20 µM) was used as positive reference inhibitor.
(§5) IC50 values for CDC25 inhibition were evaluated by in vitro fluorimetric assays and were determined with sigmoid curves plotted by using a non-linear approximation model based on the least square method (GraphPad Prism software, La Jolla, CA).

[2] = target: T2, human CDC25B (recombinant GST-CDC25) (Homo sapiens, UniProt P30305); assay: CDC25B dephosphorylation assay with 3-O-methylfluorescein phosphate (fluorimetric); settings: for remaining activity at 100 µM: 100 µM compound, DMSO control = 100%, read-out: residual activity of CDC25B; for IC50 / IC50 CDC25B: mean of triplicates ± SD
T2 construct: made in house; host or cells: Escherichia coli BL21-DE3 pLys S
T2 sequence (P30305 1-580): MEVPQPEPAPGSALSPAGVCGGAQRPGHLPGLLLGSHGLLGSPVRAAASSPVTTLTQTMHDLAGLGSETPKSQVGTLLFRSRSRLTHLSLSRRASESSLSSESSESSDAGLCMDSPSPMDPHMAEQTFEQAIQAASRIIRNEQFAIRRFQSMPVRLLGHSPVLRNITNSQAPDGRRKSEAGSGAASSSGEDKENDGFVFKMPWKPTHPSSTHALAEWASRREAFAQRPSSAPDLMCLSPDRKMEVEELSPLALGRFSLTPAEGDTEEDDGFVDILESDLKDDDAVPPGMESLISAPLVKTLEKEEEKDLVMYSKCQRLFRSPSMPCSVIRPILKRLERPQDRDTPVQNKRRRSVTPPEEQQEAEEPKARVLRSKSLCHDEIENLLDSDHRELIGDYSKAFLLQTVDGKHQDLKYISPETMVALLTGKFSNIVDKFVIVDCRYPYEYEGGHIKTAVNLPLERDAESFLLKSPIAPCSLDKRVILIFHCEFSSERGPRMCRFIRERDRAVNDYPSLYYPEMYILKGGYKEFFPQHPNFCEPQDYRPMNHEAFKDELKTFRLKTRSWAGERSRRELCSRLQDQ
Description: as §1, §2, §3, §4, §5

[3] = target: T3, human CDC25C (recombinant GST-CDC25) (Homo sapiens, UniProt P30307); assay: CDC25C dephosphorylation assay with 3-O-methylfluorescein phosphate (fluorimetric); settings: for remaining activity at 100 µM: 100 µM compound, DMSO control = 100%, read-out: residual activity of CDC25C; for IC50: mean of triplicates ± SD
T3 construct: made in house; host or cells: Escherichia coli BL21-DE3 pLys S
T3 sequence (P30307 1-473): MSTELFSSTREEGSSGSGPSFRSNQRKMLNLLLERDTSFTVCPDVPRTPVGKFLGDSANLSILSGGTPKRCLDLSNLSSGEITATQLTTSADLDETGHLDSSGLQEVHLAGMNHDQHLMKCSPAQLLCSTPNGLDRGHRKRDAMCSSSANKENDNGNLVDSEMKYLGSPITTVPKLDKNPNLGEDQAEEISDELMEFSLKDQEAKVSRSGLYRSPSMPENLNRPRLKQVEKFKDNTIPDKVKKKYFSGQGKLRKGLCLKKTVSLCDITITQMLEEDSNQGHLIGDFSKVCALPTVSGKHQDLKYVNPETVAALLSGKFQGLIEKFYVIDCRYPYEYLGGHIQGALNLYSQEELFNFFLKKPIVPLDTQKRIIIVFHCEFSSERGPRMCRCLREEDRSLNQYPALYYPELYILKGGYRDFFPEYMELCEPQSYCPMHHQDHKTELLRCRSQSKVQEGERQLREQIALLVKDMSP
Description: as §1, §2, §3, §4, §5

| Compound | remaining activity at 100 µM [1] [%] | remaining activity at 100 µM [2] [%] | remaining activity at 100 µM [3] [%] | IC50 [1] [µM] | IC50 [2] [µM] | IC50 CDC25B [2] | IC50 [3] [µM] |
| --- | --- | --- | --- | --- | --- | --- | --- |
| COC1=CC(=O)[C@]2(C)CC=C3CO[C@@H](c4ccoc4)CC3C2[C@H]1O (stereo partly drawn) [Compound 7] | > 10 | > 10 | > 10 | – | – | – | – |
| COC1=CC(=O)[C@]2(C)CC=C3CO[C@@H](c4ccoc4)CC3[C@]2([S@@+]([O-])c2ccc(C)cc2)C1=O (stereo partly drawn) [Compound 4] | – | – | – | 3.73 ± 1.53 | 18.2 ± 1.68 | double digit micromolar | 9.43 ± 1.25 |
| COC1=CC(=O)[C@]2(C)CC=C3CO[C@@H](c4ccccc4)CC3[C@]2([S@@+]([O-])c2ccc(C)cc2)C1=O (stereo partly drawn) [Compound 5] | – | – | – | 2.53 ± 0.23 | 7.46 ± 2.17 | – | 5.76 ± 0.42 |
| COCC1=CC(=O)C(C)=C([S@@+]([O-])c2ccc(C)cc2)C1=O [Compound 2] | > 10 | > 10 | > 10 | – | – | – | – |
| COC1=CC(=O)[C@]2(C)CC=C3CO[C@@H](c4ccccc4)CC3C2C1=O (stereo partly drawn) [Compound 6] | > 10 | > 10 | > 10 | – | – | – | – |
| COC1=CC(=O)C=C([S@@+]([O-])c2ccc(C)cc2)C1=O [Compound 1] | – | – | – | 2.64 ± 0.62 | – | – | – |
| CCOC1=CC(=O)C(C)=C([S@@+]([O-])c2ccc(C)cc2)C1=O [Compound 3] | – | – | – | 3.19 ± 1.02 | 11.1 ± 1.01 | double digit micromolar | 5.41 ± 0.52 |
